Data as given in patent US10961247B2, “Pyrazolopyrimidine derivatives as kinase inhibitor” (Daewoong Pharmaceutical Co., Ltd., priority 2016, dated 2021).

Columns and labels:
[1] = target: Recombinant purified human BTK (Homo sapiens (Human), UniProt Q06187); experiment: BTK enzyme inhibitory activity, ADP Glo kinase assay (Promega V9071); type: biochemical; details: for IC50: ATP 10 uM, 1 hour 30° C.; for inhibition at 0.1 µM: 100 nM compound
Procedure: (§1) JAK3 and BTK kinase inhibitory activities were measured for the compounds prepared in the above Examples through in vitro analysis on the ADP Glow (Glo) platform.
(§2) Specifically, the inhibitory activities of JAK3 and BTK kinase were measured using a JAK3 kinase assay kit (Promega, V9441) and a BTK kinase assay kit (Promega, V9071) which were purchased from Promega. Recombinant purified human JAK3 and BTK were diluted with 1×kinase reaction buffer (JAK3: 40 mM Tris-Cl, pH 7.5, 20 mM MgCl2, 0.1 mg/mL BSA and 50 uM DTT/BTK: 40 mM Tris-Cl, pH 7.5, 20 mM MgCl2, 0.1 mg/mL BSA, 2 mM MnCl2 and 50 uM DTT) and added to a 96 well plate (JAK3: final concentration of 4 ng per reaction/BTK: final concentration of 8 ng per reaction). The compounds were treated so as to be finally a 1% DMSO aqueous solution, and a substrate cocktail containing ATP (JAK3: final concentration of 5 uM/BTK: final concentration of 10 uM) and 0.2 μg/μL of Poly(Glu4, Tyr1) peptide (JAK3 and BTK final concentration) in the total […] reactants was added to a 96-well plate to initiate enzymatic reaction. After incubation (30° C.) for 1 hour, equivalent volume ([…] per reaction) of ADP Glo was added and incubated (30° C.) for 40 minutes at room temperature. Then, a kinase detection reagent ([…] per reaction) was added and incubated (30° C.) for 30 minutes at room temperature. The kinase activity was measured by chemiluminescence according to the instructions of ADP Glo kinase assay kit, and the inhibitory activity of the compounds according to the present invention was calculated. For the analysis of the results of each compound, Microsoft Excel was used, and IC50 values were calculated by SigmaPlot software.

[2] = target: Recombinant purified human JAK3 (Homo sapiens (Human), UniProt P52333); experiment: JAK3 enzyme inhibitory activity, ADP Glo kinase assay (Promega V9441); type: biochemical; details: ATP 5 uM, 1 hour 30° C.
Procedure: as §1, §2

Recombinant purified human JAK3, sequence (P52333 whole entry): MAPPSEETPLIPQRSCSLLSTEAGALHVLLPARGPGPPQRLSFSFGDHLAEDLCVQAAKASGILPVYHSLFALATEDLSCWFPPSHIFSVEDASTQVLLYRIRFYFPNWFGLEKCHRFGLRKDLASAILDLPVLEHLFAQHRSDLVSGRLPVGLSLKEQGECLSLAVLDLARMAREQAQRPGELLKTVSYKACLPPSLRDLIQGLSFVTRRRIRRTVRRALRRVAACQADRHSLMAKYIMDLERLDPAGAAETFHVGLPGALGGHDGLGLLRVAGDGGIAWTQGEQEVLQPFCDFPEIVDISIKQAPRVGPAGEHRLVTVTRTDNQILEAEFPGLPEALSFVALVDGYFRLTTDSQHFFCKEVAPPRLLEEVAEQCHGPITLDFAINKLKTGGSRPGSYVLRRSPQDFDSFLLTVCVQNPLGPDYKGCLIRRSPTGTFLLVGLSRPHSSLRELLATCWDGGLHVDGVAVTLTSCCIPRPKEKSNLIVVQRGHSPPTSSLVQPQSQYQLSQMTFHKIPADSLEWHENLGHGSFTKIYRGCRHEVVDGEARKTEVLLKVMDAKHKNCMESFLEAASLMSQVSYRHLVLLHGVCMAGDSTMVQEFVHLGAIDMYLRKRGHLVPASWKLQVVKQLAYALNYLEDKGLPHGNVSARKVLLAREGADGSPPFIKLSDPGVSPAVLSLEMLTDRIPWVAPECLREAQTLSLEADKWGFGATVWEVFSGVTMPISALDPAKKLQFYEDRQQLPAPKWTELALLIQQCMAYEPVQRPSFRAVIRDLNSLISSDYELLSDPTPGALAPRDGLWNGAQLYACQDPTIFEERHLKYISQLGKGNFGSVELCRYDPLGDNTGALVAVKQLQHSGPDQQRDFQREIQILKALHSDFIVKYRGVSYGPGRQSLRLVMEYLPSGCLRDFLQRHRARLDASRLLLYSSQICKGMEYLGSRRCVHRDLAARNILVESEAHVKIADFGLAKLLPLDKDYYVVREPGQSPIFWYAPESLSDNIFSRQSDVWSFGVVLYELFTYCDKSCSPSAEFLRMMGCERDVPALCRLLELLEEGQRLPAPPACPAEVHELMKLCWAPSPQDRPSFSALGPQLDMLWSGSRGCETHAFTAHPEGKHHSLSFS
Recombinant purified human BTK, sequence (Q06187 whole entry): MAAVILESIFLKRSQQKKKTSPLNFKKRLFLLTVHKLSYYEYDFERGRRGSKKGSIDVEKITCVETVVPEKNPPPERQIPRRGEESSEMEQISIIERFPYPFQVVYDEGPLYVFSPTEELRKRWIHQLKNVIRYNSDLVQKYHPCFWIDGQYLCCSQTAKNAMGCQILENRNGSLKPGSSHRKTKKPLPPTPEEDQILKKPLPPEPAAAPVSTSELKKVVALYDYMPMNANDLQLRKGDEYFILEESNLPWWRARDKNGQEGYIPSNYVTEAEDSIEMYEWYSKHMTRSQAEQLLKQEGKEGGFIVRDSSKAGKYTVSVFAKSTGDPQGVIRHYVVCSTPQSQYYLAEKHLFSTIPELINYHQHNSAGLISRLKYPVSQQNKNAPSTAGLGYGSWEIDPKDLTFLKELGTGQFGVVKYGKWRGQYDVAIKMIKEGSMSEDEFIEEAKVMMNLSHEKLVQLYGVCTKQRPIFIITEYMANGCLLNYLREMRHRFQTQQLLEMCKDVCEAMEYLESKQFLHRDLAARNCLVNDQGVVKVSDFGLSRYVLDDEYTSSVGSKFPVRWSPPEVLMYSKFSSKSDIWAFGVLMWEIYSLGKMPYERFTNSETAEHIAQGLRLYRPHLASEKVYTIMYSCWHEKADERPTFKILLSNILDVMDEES

| Structure (SMILES) | IC50 [1] | IC50 [2] | inhibition at 0.1 µM [1] |
| --- | --- | --- | --- |
| C[C@@H]1CCN(C(=O)CC#N)C[C@@H]1N(C)c1nc(Nc2ccc(N3CCN(C)CC3)cc2)nc2[nH]ccc12 [Example 28, 3-((3R,4R)-4-methyl-3-(methyl(2-(4-(4-methylpiperazin-1-yl)phenylamino)-7H-pyrrolo[2,3-d]pyrimidin-4-yl)amino)piperidin-1-yl)-3-oxopropanenitrile] | – | – | 3.3% |
| CC#CC(=O)N1CCC[C@@H](Nc2nc(Nc3ccc(N4CCN(C)CC4)cc3)nc3[nH]cc(Cl)c23)C1 [Example 143, (R)-1-(3-((5-chloro-2-((4-(4-methylpiperazin-1-yl)phenyl)amino)-7H-pyrrolo[2,3-d]pyrimidin-4-yl)amino)piperidin-1-yl)but-2-yn-1-one] | 165 nM | 19.3 nM | – |
| C=CC(=O)N1CCC[C@@H](Nc2nc(Nc3cnn(CC)c3)nc3[nH]nc(Cl)c23)C1 [Example 46, (R)-1-(3-(3-chloro-6-(1-ethyl-1H-pyrazol-4-ylamino)-1H-pyrazolo[3,4-d]pyrimidin-4-ylamino)piperidin-1-yl)prop-2-en-1-one] | 2 nM | 0.6 nM | – |
| C=CC(=O)NC1CCCC(Nc2nc(Nc3ccc(N4CCN(C)CC4)cc3)nc3[nH]ccc23)C1 (stereo not shown) [Example 29, N-(3-(2-(4-(4-methylpiperazin-1-yl)phenylamino)-7H-pyrrolo[2,3-d]pyrimidin-4-ylamino)cyclohexyl)acrylamide] | – | – | 47.1% |

Next, values leading:

| IC50 [1] | IC50 [2] | inhibition at 0.1 µM [1] | Structure (SMILES) |
| --- | --- | --- | --- |
| 2 nM | 0.3 nM | – | C=CC(=O)N1CCC[C@@H](Sc2nc(Nc3cnn(CC)c3)nc3[nH]cc(Cl)c23)C1 [Example 109, (R)-1-(3-((5-chloro-2-((1-ethyl-1H-pyrazol-4-yl)amino)-7H-pyrrolo[2,3-d]pyrimidin-4-yl)thio)piperidin-1-yl)prop-2-en-1-one] |
| – | – | 48% | C=CC(=O)N1CC[C@@H](C)[C@@H](N(C)c2nc(Nc3ccc(N4CCN(C)CC4)cc3)nc3[nH]ccc23)C1 [Example 27, 1-((3R,4R)-4-methyl-3-(methyl(2-(4-(4-methylpiperazin-1-yl)phenylamino)-7H-pyrrolo[2,3-d]pyrimidin-4-yl)amino)piperidin-1-yl)prop-2-en-1-one] |
| 7.8 nM | 3.7 nM | – | C=CC(=O)N1CC[C@@H](C)[C@@H](Nc2nc(Nc3cnn(CC)c3)nc3[nH]ccc23)C1 [Example 107, 1-((3R,4R)-3-((2-((1-ethyl-1H-pyrazol-4-yl)amino)-7H-pyrrolo[2,3-d]pyrimidin-4-yl)amino)-4-methylpiperidin-1-yl)prop-2-en-1-one] |
| 1.1 nM | 9 nM | – | C=CC(=O)N1CCC[C@@H](Nc2nc(Nc3cnoc3)nc3[nH]nc(SC)c23)C1 [Example 130, (R)-1-(3-((6-(isoxazol-4-ylamino)-3-(methylthio)-1H-pyrazolo[3,4-d]pyrimidin-4-yl)amino)piperidin-1-yl)prop-2-en-1-one] |
